# Results from patent US20260364080A1, “PYRAZOLO-PYRIMIDINONE COMPOUNDS FOR USE IN METHODS OF INHIBITING WEE1 A KINASE” (Acrivon Therapeutics, Inc., priority 2023, published 2026).
# Key:
# [1] = target: T1, recombinant human Wee1A kinase (Homo sapiens, UniProt P30291); assay: Wee1A kinase binding assay (LanthaScreen Eu time-resolved FRET); conditions: 30 nM tracer 178, 5 nM Wee1A kinase, 2 nM Eu-labeled antibody; 60 minutes at room temperature; read-out: Wee1A kinase Binding IC50
# T1 construct: full length Wee1 kinase was expressed by baculovirus in insect cells; purchased Invitrogen PV3817; host or cells: insect cells (baculovirus)
# Outline: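 Full-length, baculovirus-expressed GST-tagged Wee1A (5 nM) was mixed with 2 nM Eu-anti-GST antibody, 30 nM kinase tracer 178 and compound (1% DMSO). Buffer was 50 mM HEPES pH 7.5, 10 mM MgCl2, 1 mM EGTA, 0.01% Brij-35, incubated 60 min at room temperature. TR-FRET 665/615 nm emission ratios from duplicates were curve-fitted.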
# [2] = target: T2, Myt1 kinase (recombinant PMYT-1) (Homo sapiens, UniProt Q99640); assay: Myt1 kinase binding assay (LanthaScreen Eu Kinase Binding Assay); conditions: 3 nM tracer 178, 2.5 nM PMYT-1, 1 nM Eu-labeled antibody; read-out: Myt1 kinase Binding IC50
# T2 construct: full length PMYT-1 was expressed by baculovirus in insect cells; purchased Invitrogen A30984; host or cells: insect cells (baculovirus)
# T2 sequence (Q99640 1-499): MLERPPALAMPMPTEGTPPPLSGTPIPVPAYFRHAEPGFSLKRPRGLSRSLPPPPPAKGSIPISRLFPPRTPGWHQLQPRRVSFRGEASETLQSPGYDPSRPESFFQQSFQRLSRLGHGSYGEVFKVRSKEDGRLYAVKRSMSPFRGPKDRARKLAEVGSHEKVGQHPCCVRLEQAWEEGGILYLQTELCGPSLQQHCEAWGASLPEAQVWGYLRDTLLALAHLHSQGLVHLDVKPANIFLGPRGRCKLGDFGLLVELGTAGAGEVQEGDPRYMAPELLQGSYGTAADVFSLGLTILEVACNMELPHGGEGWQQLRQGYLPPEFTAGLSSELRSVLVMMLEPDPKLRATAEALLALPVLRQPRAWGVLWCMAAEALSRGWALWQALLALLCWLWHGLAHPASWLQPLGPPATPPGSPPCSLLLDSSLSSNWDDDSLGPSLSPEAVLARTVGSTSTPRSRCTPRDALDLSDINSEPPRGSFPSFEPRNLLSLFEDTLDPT
# Outline: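 The binding affinity of compounds for Myt1 kinase was measured with a LanthaScreen Europium (Eu) Kinase Binding Assay, a time-resolved FRET format in which test compounds compete against a labeled kinase tracer, and the results were expressed as IC50 values describing compound binding to Myt1.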
# [3] = target: T3, Wee1A kinase (CDK1 Tyr15 phosphorylation in ACHN renal cell carcinoma cells) (Homo sapiens, UniProt P30291); assay: High-content imaging of pCdk1 Y15, Wee1A kinase target engagement in ACHN cells; assay type: cell-based; conditions: 4 h treatment, nuclear positivity for pCdk1 Y15 vs DMSO control, read-out: CDK1 Tyr15 Phosphorylation EC50
# T3 construct: pCDK1 Tyr15 immunofluorescence read-out
# Outline: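 ACHN cells exposed to compound for 4 h over 7–5,000 nM or 0.3–200 nM, then fixed and immunostained for pCDK1 Y15 with DAPI nuclear counterstain. The percentage of pCdk1 Y15 nucleus-positive cells relative to DMSO control was imaged per well; EC50 from dose-response curves.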
# T3 sequence (P30291 whole entry): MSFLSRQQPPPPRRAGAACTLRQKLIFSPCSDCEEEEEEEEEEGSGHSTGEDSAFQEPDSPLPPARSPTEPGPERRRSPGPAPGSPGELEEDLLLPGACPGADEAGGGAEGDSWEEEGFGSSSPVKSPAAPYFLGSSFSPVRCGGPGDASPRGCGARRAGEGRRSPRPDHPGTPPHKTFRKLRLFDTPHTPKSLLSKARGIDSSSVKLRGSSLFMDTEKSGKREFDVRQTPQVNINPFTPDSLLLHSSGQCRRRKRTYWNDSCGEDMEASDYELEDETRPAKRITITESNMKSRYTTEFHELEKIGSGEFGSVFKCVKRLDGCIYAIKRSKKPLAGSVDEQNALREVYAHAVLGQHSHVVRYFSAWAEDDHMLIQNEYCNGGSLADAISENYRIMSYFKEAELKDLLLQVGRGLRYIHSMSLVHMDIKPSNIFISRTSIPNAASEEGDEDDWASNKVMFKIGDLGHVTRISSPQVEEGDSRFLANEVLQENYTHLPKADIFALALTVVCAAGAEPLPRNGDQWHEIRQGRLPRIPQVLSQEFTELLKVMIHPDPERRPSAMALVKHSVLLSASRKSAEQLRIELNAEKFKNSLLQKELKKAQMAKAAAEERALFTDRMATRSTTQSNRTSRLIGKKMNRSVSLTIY
# T1 sequence (P30291 whole entry): as above
Structure (SMILES),IC50 [1],IC50 [2],EC50 [3]
"C=CCn1c(=O)c2cnc(Nc3ccc(C)nc3)nc2n1-c1cccc(OC2CCNCC2)n1 [Compound 237, 2-allyl-6-((6-methylpyridin-3-yl)amino)-1-(6-(piperidin-4-yloxy)pyridin-2-yl)-1,2-dihydro-3H-pyrazolo[3,4-d]pyrimidin-3-one]",< 10 nM,20 to 100 nM,100 to 500 nM
"C=CCn1c(=O)c2cnc(Nc3ccc4nccnc4c3)nc2n1-c1cccc(OC2CCNCC2)n1 [Compound 239, 2-allyl-1-[6-(4-piperidyloxy)-2-pyridyl]-6-(6-quinoxalinylamino)-1,2-dihydro-3H-1,2,5,7-tetraazainden-3-one]",< 10 nM,< 20 nM,100 to 500 nM
"C=CCn1c(=O)c2cnc(Nc3ccc4ncnn4c3)nc2n1-c1cccc(OC2CCNCC2)n1 [Compound 245, 2-allyl-6-(1,3,3a-triaza-5-indenylamino)-1-[6-(4-piperidyloxy)-2-pyridyl]-1,2-dihydro-3H-1,2,5,7-tetraazainden-3-one]",< 10 nM,20 to 100 nM,> 1000 nM
"C=CCn1c(=O)c2cnc(Nc3ccc(F)cc3)nc2n1-c1ccnc(OC2CCNCC2)n1 [Compound 247, 2-allyl-6-((4-fluorophenyl)amino)-1-(2-((piperidin-4-yl)oxy)pyrimidin-4-yl)-1,2-dihydro-3H-pyrazolo[3,4-d]pyrimidin-3-one]",< 10 nM,< 20 nM,100 to 500 nM
"C=CCn1c(=O)c2cnc(Nc3ccc4ncnn4c3)nc2n1-c1cccc(OC2CCN(C)CC2)n1 [Compound 249, 2-allyl-6-(1,3,3a-triaza-5-indenylamino)-1-[6-(1-methyl-4-piperidyloxy)-2-pyridyl]-1,2-dihydro-3H-1,2,5,7-tetraazainden-3-one]",< 10 nM,20 to 100 nM,100 to 500 nM
"C=CCn1c(=O)c2cnc(Nc3ccc(N4CCOCC4)c(C)c3)nc2n1-c1cccc(OC2CCNCC2)n1 [Compound 262, 2-allyl-6-(4-morpholino-3-toluidino)-1-[6-(4-piperidyloxy)-2-pyridyl]-1,2-dihydro-3H-1,2,5,7-tetraazainden-3-one]",< 10 nM,20 to 100 nM,< 100 nM
"C=CCn1c(=O)c2cnc(Nc3ccnc(OC)c3)nc2n1-c1cccc(OC2CCN(C)CC2)n1 [Compound 263, 2-allyl-6-(2-methoxy-4-pyridylamino)-1-[6-(1-methyl-4-piperidyloxy)-2-pyridyl]-1,2-dihydro-3H-1,2,5,7-tetraazainden-3-one]",< 10 nM,< 20 nM,< 100 nM
"C=CCn1c(=O)c2cnc(Nc3ccc4nc(C)sc4c3)nc2n1-c1cccc(OC2CCNCC2)n1 [Compound 264, 2-allyl-6-(2-methyl-1,3-benzothiazol-6-ylamino)-1-[6-(4-piperidyloxy)-2-pyridyl]-1,2-dihydro-3H-1,2,5,7-tetraazainden-3-one]",< 10 nM,< 20 nM,< 100 nM
"CCn1c(=O)c2cnc(Nc3ccc(Br)cc3)nc2n1-c1cccc(OC2CCNCC2)n1 [Compound 267, 6-(p-bromophenylamino)-2-ethyl-1-[6-(4-piperidyloxy)-2-pyridyl]-1,2-dihydro-3H-1,2,5,7-tetraazainden-3-one]",< 10 nM,20 to 100 nM,100 to 500 nM
"CCn1c(=O)c2cnc(Nc3ccc(Br)cc3)nc2n1-c1cccc(OC2CCN(C)CC2)n1 [Compound 268, 6-(p-bromophenylamino)-2-ethyl-1-[6-(1-methyl-4-piperidyloxy)-2-pyridyl]-1,2-dihydro-3H-1,2,5,7-tetraazainden-3-one]",< 10 nM,< 20 nM,100 to 500 nM
"C=CCn1c(=O)c2cnc(Nc3cccc(Br)c3)nc2n1-c1cccc(OC2CCN(C)CC2)n1 [Compound 269, 2-allyl-6-(m-bromophenylamino)-1-[6-(1-methyl-4-piperidyloxy)-2-pyridyl]-1,2-dihydro-3H-1,2,5,7-tetraazainden-3-one]",< 10 nM,< 20 nM,100 to 500 nM

# Next, values leading:
IC50 [1],IC50 [2],EC50 [3],Structure (SMILES)
< 10 nM,< 20 nM,100 to 500 nM,"CCn1c(=O)c2cnc(Nc3ccc(-c4cnn(C)c4)cc3)nc2n1-c1cccc(OC2CCNCC2)n1 [Compound 271, 2-ethyl-6-[p-(1-methyl-4-pyrazolyl)phenylamino]-1-[6-(4-piperidyloxy)-2-pyridyl]-1,2-dihydro-3H-1,2,5,7-tetraazainden-3-one]"
< 10 nM,< 20 nM,100 to 500 nM,"CCn1c(=O)c2cnc(Nc3ccc(-c4ccccc4)cc3)nc2n1-c1cccc(OC2CCNCC2)n1 [Compound 272, 6-(4-biphenylylamino)-2-ethyl-1-[6-(4-piperidyloxy)-2-pyridyl]-1,2-dihydro-3H-1,2,5,7-tetraazainden-3-one]"
< 10 nM,< 20 nM,100 to 500 nM,"C=CCn1c(=O)c2cnc(Nc3ccc4nn(C)cc4c3)nc2n1-c1cccc(OC2CCNCC2)n1 [Compound 274, 2-allyl-6-((2-methyl-2H-indazol-5-yl)amino)-1-(6-(piperidin-4-yloxy)pyridin-2-yl)-1,2-dihydro-3H-pyrazolo[3,4-d]pyrimidin-3-one]"
< 10 nM,20 to 100 nM,> 1000 nM,"C=CCn1c(=O)c2cnc(Nc3ccc4[nH]nc(Cl)c4c3)nc2n1-c1cccc(OC2CCNCC2)n1 [Compound 275, 2-allyl-6-((3-chloro-1H-indazol-5-yl)amino)-1-(6-(piperidin-4-yloxy)pyridin-2-yl)-1,2-dihydro-3H-pyrazolo[3,4-d]pyrimidin-3-one]"
< 10 nM,20 to 100 nM,< 100 nM,C=CCn1c(=O)c2cnc(Nc3ccc4nn(CC)cc4c3)nc2n1-c1cccc(OC2CCNCC2)n1 [Compound 276]
< 10 nM,< 20 nM,100 to 500 nM,"CCn1c(=O)c2cnc(Nc3ccc(-c4ccccc4)cc3)nc2n1-c1cccc(OC2CCN(C)CC2)n1 [Compound 284, 6-(4-biphenylylamino)-2-ethyl-1-[6-(1-methyl-4-piperidyloxy)-2-pyridyl]-1,2-dihydro-3H-1,2,5,7-tetraazainden-3-one]"
< 10 nM,100 to 500 nM,> 1000 nM,"CCn1c(=O)c2cnc(Nc3ccc4c(cnn4C)c3)nc2n1-c1cccc(NC2CCNCC2)n1 [Compound 285, 2-ethyl-6-[(1-methyl-1H-indazol-5-yl)amino]-1-{6-[(piperidin-4-yl)amino]pyridin-2-yl}-1H,2H,3H-pyrazolo[3,4-d]pyrimidin-3-one]"
< 10 nM,100 to 500 nM,100 to 500 nM,"CCn1c(=O)c2cnc(Nc3ccc(F)cc3)nc2n1-c1cccc(OC2CCNCC2)n1 [Compound 297, 2-ethyl-6-(p-fluorophenylamino)-1-[6-(4-piperidyloxy)-2-pyridyl]-1,2-dihydro-3H-1,2,5,7-tetraazainden-3-one]"
< 10 nM,20 to 100 nM,100 to 500 nM,"C=CCn1c(=O)c2cnc(Nc3ccc(C#N)cc3)nc2n1-c1cccc(OC2CCNCC2)n1 [Compound 300, p-{2-allyl-3-oxo-1-[6-(4-piperidyloxy)-2-pyridyl]-1,2-dihydro-3H-1,2,5,7-tetraazainden-6-ylamino}benzonitrile]"
< 10 nM,20 to 100 nM,500 to 1000 nM,"CCn1c(=O)c2cnc(Nc3ccc(C#N)cc3)nc2n1-c1cccc(OC2CCNCC2)n1 [Compound 302, p-{2-ethyl-3-oxo-1-[6-(4-piperidyloxy)-2-pyridyl]-1,2-dihydro-3H-1,2,5,7-tetraazainden-6-ylamino}benzonitrile]"
< 10 nM,20 to 100 nM,500 to 1000 nM,"C=CCn1c(=O)c2cnc(Nc3ccc(F)cc3)nc2n1-c1cccc(OC2CCCNCC2)n1 (stereo not drawn) [Compound 315, 2-allyl-1-[6-(4-azepanyloxy)-2-pyridyl]-6-(p-fluorophenylamino)-1,2-dihydro-3H-1,2,5,7-tetraazainden-3-one]"
